Activity calls are given as the source filed them.

Experiment [1] deals with FAD-linked sulfhydryl oxidase ALR (Homo sapiens, UniProt P55789). Put plainly: inhibitors of human ALR sulfhydryl oxidase, dose response, biochemical, H2O2 detection, luminescence, cherry-pick (AID 493248).
A short description of experiment [2]: Luminescence Cell-Based Dose Retest to Confirm Inhibitors of Cancer Stem Cells. [Related pubchem assays (depositor defined):AID2717, AID2721]. The format is functional. The following applies: Homo sapiens.
The target in experiment [3] is T1, Replicative DNA helicase DnaB (Mycobacterium tuberculosis, UniProt P9WMR3).
T1 sequence (P9WMR3 whole entry): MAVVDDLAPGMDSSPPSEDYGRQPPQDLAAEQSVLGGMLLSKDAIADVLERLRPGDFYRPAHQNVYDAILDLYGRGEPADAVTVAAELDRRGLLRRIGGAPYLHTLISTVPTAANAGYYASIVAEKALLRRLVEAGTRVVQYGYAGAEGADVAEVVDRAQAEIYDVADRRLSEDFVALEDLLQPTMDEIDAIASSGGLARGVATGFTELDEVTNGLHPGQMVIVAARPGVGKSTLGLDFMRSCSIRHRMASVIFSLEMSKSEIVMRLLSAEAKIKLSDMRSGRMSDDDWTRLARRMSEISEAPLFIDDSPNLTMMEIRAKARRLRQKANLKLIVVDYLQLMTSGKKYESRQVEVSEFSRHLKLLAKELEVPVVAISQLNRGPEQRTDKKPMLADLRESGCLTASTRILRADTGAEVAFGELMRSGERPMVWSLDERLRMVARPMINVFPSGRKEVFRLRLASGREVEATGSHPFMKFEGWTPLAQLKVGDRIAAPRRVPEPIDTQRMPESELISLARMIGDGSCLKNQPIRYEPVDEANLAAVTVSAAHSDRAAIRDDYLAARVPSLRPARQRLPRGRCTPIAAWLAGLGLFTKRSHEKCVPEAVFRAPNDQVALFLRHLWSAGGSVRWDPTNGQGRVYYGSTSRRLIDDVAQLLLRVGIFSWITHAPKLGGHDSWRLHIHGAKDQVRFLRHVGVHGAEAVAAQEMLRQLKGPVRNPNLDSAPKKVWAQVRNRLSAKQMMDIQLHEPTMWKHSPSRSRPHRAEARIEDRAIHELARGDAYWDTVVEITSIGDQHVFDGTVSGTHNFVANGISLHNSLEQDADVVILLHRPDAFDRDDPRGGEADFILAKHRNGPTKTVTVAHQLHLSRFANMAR
Put plainly: DnaB intein splicing inhibitors, dose response, biochemical, cell-free fluorescence (AID 449749). The experiment is classed as functional.

For another experiment, the target named is T2, Protein RecA (Mycobacterium tuberculosis, UniProt P9WHJ3).
T2 sequence (P9WHJ3 whole entry): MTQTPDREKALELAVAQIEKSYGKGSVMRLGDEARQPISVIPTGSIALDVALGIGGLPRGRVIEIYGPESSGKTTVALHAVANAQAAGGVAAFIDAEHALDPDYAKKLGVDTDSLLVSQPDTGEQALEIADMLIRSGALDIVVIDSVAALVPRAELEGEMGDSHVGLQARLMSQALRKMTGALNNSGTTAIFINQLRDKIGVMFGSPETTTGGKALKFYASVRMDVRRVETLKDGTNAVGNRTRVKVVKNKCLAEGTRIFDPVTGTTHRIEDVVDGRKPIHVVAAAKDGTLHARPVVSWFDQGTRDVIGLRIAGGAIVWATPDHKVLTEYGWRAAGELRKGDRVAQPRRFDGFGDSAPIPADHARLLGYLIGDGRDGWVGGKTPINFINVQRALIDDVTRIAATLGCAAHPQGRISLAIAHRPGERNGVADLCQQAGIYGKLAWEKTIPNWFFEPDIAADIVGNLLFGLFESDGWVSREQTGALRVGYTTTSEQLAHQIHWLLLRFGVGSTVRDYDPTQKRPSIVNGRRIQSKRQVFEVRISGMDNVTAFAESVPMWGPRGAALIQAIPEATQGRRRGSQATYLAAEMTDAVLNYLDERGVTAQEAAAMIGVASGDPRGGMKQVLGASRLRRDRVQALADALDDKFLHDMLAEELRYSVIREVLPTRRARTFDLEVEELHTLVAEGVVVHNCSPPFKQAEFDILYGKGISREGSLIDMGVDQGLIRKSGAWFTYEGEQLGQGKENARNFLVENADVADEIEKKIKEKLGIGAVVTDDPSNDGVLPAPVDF
Put plainly: Fluorescence Cell-Free Homogeneous Dose Retest to Identify Inhibitors of RecA-Intein Splicing Activity. [Related pubchem assays (depositor defined):AID2097, AID2223, AID489010, AID492950]. The experiment is classed as functional.

The nature of experiment [4]: inhibitors of intracellular T. cruzi replication, confirmation, NIH3T3 host cells, beta-gal luminescence (AID 2044).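 Note: intracellular parasites grown in NIH/3T3 mouse fibroblasts as host cells; luminescent beta-galactosidase reporter signal from transgenic T. cruzi replicating inside host cells; inhibitors lower the luminescence signal.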 The format is functional, cell-based.
A short description of experiment [5]: cytotoxicity toward NIH3T3 fibroblasts, dose response, counter-screen, cell-based, ATP luminescence, mouse fibroblasts (AID 2010).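 Note: cells exposed to compound for about 90 hours before reading.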 The experiment is classed as functional.
The target in experiment [6] is T3, Rac GTPase-activating protein 1 (Homo sapiens, UniProt Q9H0H5).
T3 sequence (Q9H0H5 whole entry): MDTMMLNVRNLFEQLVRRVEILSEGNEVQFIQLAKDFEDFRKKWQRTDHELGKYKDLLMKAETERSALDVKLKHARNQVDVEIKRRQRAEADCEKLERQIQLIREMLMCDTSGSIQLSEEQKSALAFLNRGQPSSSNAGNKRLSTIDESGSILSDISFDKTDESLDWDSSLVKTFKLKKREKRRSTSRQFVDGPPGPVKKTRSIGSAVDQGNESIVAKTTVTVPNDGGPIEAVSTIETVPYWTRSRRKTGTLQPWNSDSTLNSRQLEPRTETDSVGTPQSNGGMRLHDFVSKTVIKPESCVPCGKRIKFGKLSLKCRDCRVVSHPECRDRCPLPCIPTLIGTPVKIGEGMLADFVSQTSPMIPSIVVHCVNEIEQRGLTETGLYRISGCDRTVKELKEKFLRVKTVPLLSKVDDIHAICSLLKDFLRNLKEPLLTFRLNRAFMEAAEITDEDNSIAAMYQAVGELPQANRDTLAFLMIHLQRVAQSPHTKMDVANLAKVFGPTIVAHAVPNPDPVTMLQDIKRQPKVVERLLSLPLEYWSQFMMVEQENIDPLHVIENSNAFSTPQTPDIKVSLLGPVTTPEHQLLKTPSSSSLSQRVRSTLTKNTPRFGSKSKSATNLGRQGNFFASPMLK
Put plainly: MgcRacGAP GTPase-activating activity inhibitors, confirmation, biochemical, ADP Hunter fluorescence, primary and confirmatory (AID 624330). The format is functional.

Experiment [7] addresses T4, Heat shock factor protein 1 (Mus musculus, UniProt P38532).
T4 sequence (P38532 whole entry): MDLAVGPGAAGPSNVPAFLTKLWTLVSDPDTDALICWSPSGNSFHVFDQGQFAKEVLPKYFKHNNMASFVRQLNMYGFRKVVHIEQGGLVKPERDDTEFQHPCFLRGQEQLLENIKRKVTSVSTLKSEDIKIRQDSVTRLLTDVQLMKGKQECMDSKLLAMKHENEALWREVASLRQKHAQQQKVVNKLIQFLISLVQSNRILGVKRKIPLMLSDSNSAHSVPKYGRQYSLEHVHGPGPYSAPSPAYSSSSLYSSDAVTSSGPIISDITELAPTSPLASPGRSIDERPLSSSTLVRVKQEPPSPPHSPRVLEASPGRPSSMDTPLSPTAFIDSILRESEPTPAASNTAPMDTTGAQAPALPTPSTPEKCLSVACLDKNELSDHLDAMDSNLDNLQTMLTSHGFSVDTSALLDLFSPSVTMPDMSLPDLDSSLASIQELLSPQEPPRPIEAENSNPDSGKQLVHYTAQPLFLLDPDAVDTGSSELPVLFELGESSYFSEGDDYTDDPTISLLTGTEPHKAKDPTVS
Put plainly: HSF1 potentiators in luciferase reporter cells, confirmation, cell-based, NIH3T3, luminescence, dose retest (AID 435004).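 Note: stress induced by proteasome inhibitor MG132 added 30 min after compound; luciferase reporter driven by HSF1 response element in NIH3T3 cells; actives raise luminescence as potentiators of the MG132 stress response.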 The format is functional.

FAD-linked sulfhydryl oxidase ALR, sequence (P55789 whole entry): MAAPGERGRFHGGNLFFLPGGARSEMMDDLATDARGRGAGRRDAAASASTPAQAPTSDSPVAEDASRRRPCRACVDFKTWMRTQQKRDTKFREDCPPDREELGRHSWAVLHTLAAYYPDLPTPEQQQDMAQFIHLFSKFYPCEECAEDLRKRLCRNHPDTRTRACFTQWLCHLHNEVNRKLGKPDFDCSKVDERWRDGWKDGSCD

With `O=C(NCC(=O)N1CCN(c2ccccc2O)CC1)c1ccco1`, the AC50 in experiment [1] was 2.22 µM (active).
On to `N#CC(C#N)=C(C#N)c1ccc(Nc2ccccc2)cc1`, for which the AC50 was 2.54 µM (active) in experiment [2] and > 380 µM (inactive) in experiment [3]. At Protein RecA, the EC50 was 2.49 µM (active).
Take `CCc1ccc(NC(=O)CSc2ccc(-c3sc(C)nc3C)nn2)cc1`: the concentration at half-maximal activity (AC50) in experiment [3] was 278 µM (active). Moreover, on Protein RecA, the EC50 is > 380 µM (inactive).
Take `CC(C)(C)OC(=O)NCc1nnc(S)n1C1CC1`: the AC50 in experiment [1] is 5.46 µM (active).
Regarding `O=C(NC1CCCC1)C(c1ccc(F)cc1)N(Cc1ccc(Cl)cc1)C(=O)CCl` (stereo unspecified), the AC50 in experiment [3] is 9.46 µM (active). Further, the EC50 on Protein RecA was 0.965 µM (active).
Consider `O=C(c1cccc(C(F)(F)F)c1)C1CCCN(C(=O)c2cc(C3CC3)[nH]n2)C1` (stereo unspecified), for which the AC50 in experiment [1] is 0.392 µM (active).
As for `CCCc1n[nH]c2c1C(c1ccc(OC(=O)c3ccco3)cc1)C(C#N)=C(N)O2` (stereo unspecified), in experiment [3], the AC50 is 3.41 µM (active). The EC50 on Protein RecA is 5.22 µM (active).
Turning to `Cc1ccc(C)c(NC(=O)NNS(=O)(=O)c2ccc(C)c(C)c2)c1`, the AC50 in experiment [1] was 3.8 µM (active).
With `CCOc1cc(/C=C2\C(=N)N3N=C(N4CCCCC4)SC3=NC2=O)ccc1OC(=O)c1ccco1`, in experiment [3], the AC50 was > 380 µM (inactive). Further, the EC50 on Protein RecA is 18.6 µM (active).
As for `Cc1c(C(=O)O)c2cc(O)ccc2n1-c1ccccc1`, the AC50 in experiment [1] is 5.18 µM (active).
For `CN1CCN2c3ccc(N)cc3CC3(C(=O)NC(=O)NC3=O)C2C1` (stereo unspecified), in experiment [3], the AC50 is 147 µM (active). In addition, at Protein RecA, the EC50 is 39.5 µM (active).
With `CCOC(=O)CSc1nc2sc3c(c2c(=O)n1C1CCCCC1)CCN(C)C3`, the EC50 in experiment [4] is 1.43 µM (active); in experiment [5] it was > 30 µM (not active); on Protein RecA, 15.2 µM (active). The AC50 in experiment [3] was > 380 µM (inactive).
With `CCOC(=O)/C(C#N)=C\c1ccc(O)c(OC)c1`, in experiment [3], the AC50 was 27.2 µM (active). Moreover, the half-inhibitory concentration (IC50) in experiment [6] is 48.9 µM (active). Moreover, the EC50 on Protein RecA is 9.54 µM (active).
As for `Cc1ccc2c(c1)c1nnc(SCC(=O)Nc3ccc(N(C)C)cc3)nc1n2CC(=O)O`, the AC50 in experiment [3] was 92.5 µM (active). Also, the EC50 on Protein RecA is 0.483 µM (active).
Taken in the same sequence, the figures for `COCC(C)NC(=O)CCS(=O)(=O)c1nc(-c2ccc(OC)cc2)cc(C(F)(F)F)n1` (stereo unspecified) were 12.5 µM (active) and 6.72 µM (active).
Turning to `[O-]c1c[n+](-c2ccc(-[n+]3cc([O-])on3)cc2)no1`, the AC50 in experiment [1] is 4.1 µM (active).
Take `Cn1cnc([N+](=O)[O-])c1Oc1ccc2ccccc2c1`: the AC50 in experiment [3] is 31.9 µM (active). The EC50 on Protein RecA is 12.7 µM (active).
Regarding `COc1ccc(-c2[nH]nc3c2C(c2ccccc2OC(=O)N2CCOCC2)C(C#N)=C(N)O3)cc1` (stereo unspecified), the AC50 in experiment [3] is 11.2 µM (active). For the same compound, the EC50 at Protein RecA was 3.91 µM (active).
Turning to `Cc1ccc2occ(C3N[C@H](C(=O)O)CS3)c(=O)c2c1` (stereo partly specified), the AC50 in experiment [1] is 0.392 µM (active).
As to `CCN(CC)c1ccc(NS(=O)(=O)c2ccc(-c3ccc(O)nn3)o2)c(C)c1`, the AC50 in experiment [1] was 0.382 µM (active).
Consider `CCC1(C(=O)O)NC(c2cc(OC)ccc2O)C2C(=O)N(Cc3ccccc3)C(=O)C21` (stereo unspecified), for which the AC50 in experiment [1] is 7.15 µM (active).
`Cc1ccc(-c2c3c(=O)n(C)c(=O)n(C)c3cn2-n2cnnc2)cc1`: in experiment [1], the AC50 was 9.89 µM (active). In addition, the EC50 in experiment [7] was 13.5 µM (active).
`Oc1ccccc1/C=N/Nc1ccccc1`: in experiment [1], the AC50 was 7.86 µM (active).
The same measure, in the same setting: as for `CCN(CC)C(=N)/C(C#N)=N/Nc1ccc(C)cc1`, the figure is 0.035 µM (active).
`COc1ccc(CC(=O)N/N=C(/C)CC(=O)N(C)c2ccccc2)cc1`: the AC50 in experiment [3] is 29.3 µM (active). Further, the EC50 on Protein RecA is 9.23 µM (active).
`Cn1cccc1/C=N/N1CCN(c2ccccc2)CC1`: the AC50 in experiment [1] was 85.3 µM (active). Besides, the half-maximal inhibitory concentration (IC50) in experiment [6] is 84.2 µM (active).
Consider `CCCn1c2ccc(/C(C)=N\O)cc2c2cc(/C(C)=N/O)ccc21`, for which the AC50 in experiment [1] is 0.028 µM (active).

For the origin of these results see ChEMBL document CHEMBL1201862, “PubChem BioAssay data set” (2004).
